The text below walks through data of patent publication US20030109584A1, “Stabilized pharmaceutically effective composition and pharmaceutical formulation comprising the same” (priority 2000, published 2003).

Holding throughout (type): physicochemical
Data set [1] in a line: pH value of 1% or 5% aqueous solution of the active substance, after preparing and after 1 week on air. As for the experimental part:
Within the scope of this invention the term “which will provide a pH value” means a pH value that is measured in an aqueous solution or dispersion of an active substance or of a mixture of the active substance with the buffering substance or of a stabilized active substance according to this invention or of a pharmaceutical formulation or of a stabilized pharmaceutical formulation of an active substance obtained according to this invention. The concentration of such an aqueous solution or dispersion is 1% or 5%. The measurement procedure is described in Examples 1-11.

A short description of data set [2]: Stability of pravastatin (lactone and impurity formation) in buffers of pH 7 to 11. To be noted: buffers pH 7 to 11 (phosphate, citrate, borate); 1, 5, 13 and 28 days. The source says: The third observation is that a sufficient stabilization of the active substance is already obtained at a pH of at least 7.0, but a beneficially high stability is effected at a pH of at least 8.0. We have noticed that at a pH below 8 the formation of lactone has occurred and also the amount of other impurities has increased. The presence of humidity in the air and a carbon dioxide-rich atmosphere makes the negative effect of a low pH even stronger. This is illustrated by the following experiment: Pravastatin was dissolved in different buffers with the pH in a range between 7 and 11 (F=phosphate, C=citrate, B=borate). The occurrence of pravastatin in lactone form and the formation of different degradation products (impurities) were measured after 1, 5, 13 and 28 days.

Data set [3] can be described thus: pH of pravastatin sodium crystals kept in normal air, nitrogen or carbon dioxide atmosphere. As for the experimental part: Another observation was that carbon dioxide from the air may irreversibly and reversibly bind to the active substance and can cause a drop of pH. This is illustrated by the following experiment: 5 g of pravastatin sodium were dissolved in 30 ml of methanol, the pH was adjusted to 10 with 3% aqueous solution of NaOH. 400 ml of ethylacetate were added and the crystals of pravastatin sodium were formed. Crystals were filtered and dried and then put into three different atmospheres: normal air, nitrogen atmosphere and carbon dioxide atmosphere. In normal air and in the nitrogen atmosphere the pH remained the same during a period of 24 hours (normal air: pH 9.2, nitrogen: pH 9.5), but in the carbon dioxide atmosphere the pH dropped in the first two minutes from 9.2 to 6.9. After 12 minutes the pH was 6.6 and after 1 hour the pH was 6.5. After that, the pH remained constant.

SMILES strings stand for the structures.

Consider `CC[C@H](C)C(=O)O[C@H]1C[C@H](O)C=C2C=C[C@H](C)[C@H](CC[C@@H](O)C[C@@H](O)CC(=O)O)[C@H]21` [Pravastatin Sodium], for which, in data set [1] (1% aqueous solution, after 1 week in air atmosphere), the “Value pH (1%) after 1 week on air atm” value stood at 7.2. The “Value pH (1%) after preparing” value in data set [1] (1% aqueous solution, after preparing) is on record as 7.4. Besides, the “Value pH (5%) after 1 week on air atm” value in data set [1] (5% aqueous solution, after 1 week in air atmosphere) came out at 7.6. For the same molecule, the “Value pH (5%) after preparing” value in data set [1] (5% aqueous solution, after preparing) is given as 7.7. Also, the “pH at which formation of lactone occurred and other impurities increased” value in data set [2] is listed as “below 8”. In addition, the “pH in carbon dioxide atmosphere after 12 minutes” value in data set [3] (carbon dioxide atmosphere, 12 minutes) worked out at 6.6. In addition, the “pH in carbon dioxide atmosphere after 1 hour” value in data set [3] (carbon dioxide atmosphere, 1 hour, constant afterwards) worked out at 6.5. In addition, the “pH in carbon dioxide atmosphere after two minutes” value in data set [3] (carbon dioxide atmosphere, first two minutes) was 6.9. Also, the “pH at start in carbon dioxide atmosphere” value in data set [3] (carbon dioxide atmosphere, starting value) amounted to 9.2. Moreover, in data set [3] (crystals from solution adjusted to pH 10 with NaOH, normal air, remained the same during 24 hours), the “pH in normal air” value was found to be 9.2. In addition, the “pH in nitrogen atmosphere” value in data set [3] (nitrogen atmosphere, remained the same during 24 hours) is recorded as 9.5.
